The results in this text go back to patent US5294724A, “4-hydroxytetrahydropyran-2-ones and the corresponding dihydroxycarboxylic acid derivatives, salts and esters and a process for their preparation” (priority 1989, dated 1994).

The subject of data set [1] is microsomal lipid peroxidation. The data set can be described thus: Inhibition of microsomal lipid peroxidation (in vitro). The format is biochemical. The conditions noted are these: for IC50: microsomes, read-out: IC50 (50% inhibition of lipid peroxidation). On the procedure: 5) Inhibition of microsomal lipid peroxidation (in vitro)
The inhibition of lipid peroxidation was measured under the experimental conditions described by H. Wafers and H. Sies, Eur. J. Biochem. 174, 353-357 (1988). The microsomes were obtained according to the literature cited therein. IC50 denotes the concentration of the test compound in moles per liter which causes a 50% inhibition of lipid peroxidation.

The test system of another data set is serum total cholesterol. The data set can be described thus: Hypocholesterolemic activity in rabbits after p.o. administration. The format is in vivo, male white New Zealand rabbits. The conditions noted are these: rabbit p.o. On the procedure:
4) Hypocholesterolemic activity in rabbits after p.o. administration
Normolipemic male white New Zealand rabbits, body weight 3-3.5 kg, were divided into groups of 5 animals. The groups in each case received one of the test compounds (sodium salts of the compounds of the formula II), suspended in 1% aqueous methylcellulose (®Tylose MH 300), 5.10 or 20 mg/kg/day daily in the morning by stomach tube. The animals of the control groups received only Tylose MH 300. Every 3-4 days samples of venous blood were taken from all animals 20 hours after the oral administration. The serum total cholesterol was determined enzymatically in these samples using the test combination of Boehringer Mannheim (CHOD-PAP high performance method). The serum cholesterol level of the treated animals was compared with that of the control groups. A "discharge phase" followed the 20-day "treatment phase", in which the change in the serum cholesterol level was further monitored.

A further data set deals with serum lipoproteins. The data set can be described thus: Action on serum lipoproteins and other metabolic parameters of male rats in the subchronic test. The format is in vivo. The conditions noted are these: rat. The procedure:
3) Action on serum lipoproteins and other metabolic parameters of male rats in the subchronic test
Groups of male rats of the strain HOE: WISKf (SPF 71) having a starting weight of above 180 g received the test preparations daily in the morning (sodium salts of the dihydroxycarboxylic acids of the formula II) in polyethylene glycol 400 by stomach tube; the respective control group received only the vehicle. The last (7th) administration was carried out 24 hours before taking blood and sacrificing. There was free access to food and water during the experiment. 24 hours before taking blood, which wall carried out retroorbitally under slight ether anesthesia before and after the treatment period (i.e. on the 1st and 8th day), the food was withdrawn. Total cholesterol was determined in the serum of each individual animal [CHODPAP high performance method of Boehringer Mannheim], and, as a measure of the triglycerides, total glycerol was also determined analytically from the serum pool of all the animals of one group [GPO-PAP high performance method, Boehringer Mannheim].
Immediately after taking blood, the animals were sacrificed by dislocation of the spine, and the relative liver weight, the change in body weight and the food consumption were determined.
For the analysis of the serum lipoproteins, the serum of all the rats of one group was pooled. The serum lipoproteins were separated using the preparative ultracentrifuge.
The following conditions were used for the separation of the fractions VLDL, LDL and HDL:
The determination of the protein was carried out by the method of Lowry et al. [LOWRY O. H., ROSEBOROUGH, N.J., PARR, A. L. and RANDELL, R. J.: J. Biol. Chem. 193, 265 (1951)].

The subject of the next data set is HEP G2 cells. Put plainly: Inhibition of cholesterol biosynthesis in cell cultures (HEP G2 cells), incorporation of 14C-sodium acetate in cholesterol. The format is cell-based. Conditions: for IC50 / IC70: Homo sapiens. On the procedure: 2) Inhibition of cholesterol biosynthesis in cell cultures (EEP G2 cells)
Determination of the inhibition of the incorporation of ^14 C-sodium acetate in cholesterol
Monolayers of HEP G2 cells in lipoprotein-free medium were preincubated with various concentrations of the sodium salts of the dihydroxycarboxylic acids of the formula II for 1 hour. After adding ^14 C-labeled sodium acetate, the incubation was continued for 3 hours. Tritium-labeled cholesterol was added as an internal standard and an aliquot of the cells was subjected to alkaline hydrolysis. The lipids were extracted using chloroform/methanol 2: 1. After adding carrier cholesterol, the lipid mixture was preparatively separated on TLC plates using chloroform/acetone 9: 1. The cholesterol zone was made visible by staining with iodine vapor, additionally detected using a TLC radio scanner and then scraped off. The amount of ^14 C-cholesterol formed was determined scintigraphically and related to mg of cell protein. The same procedure was carried out with cells from the Bame culture without preincubation with a test compound (so-called "solvent control"). The potency of the test compounds was determined by comparison of the biosynthesized ^14 C-cholesterol in test runs and in "solvent control".

Setting [2] is: 10 mg then 20 mg/kg per day, discharge phase 3.
[3] abbreviates: 10 mg then 20 mg/kg per day, discharge phase 6.
The mark [4] stands for this setting: 10 mg then 20 mg/kg per day, discharge phase 11.
Where [5] appears, read: 10 mg then 20 mg/kg per day, discharge phase 22.
[6] abbreviates: 10 mg/kg per day (up to 10th day), administration 3.
The mark [7] stands for this setting: 10 mg/kg per day (up to 10th day), administration 10.
Setting [8] is: 20 mg/kg per day (from 11th day), administration 14.
Setting [9] is: 20 mg/kg per day (from 11th day), administration 17.
Where [10] appears, read: 20 mg/kg per day (from 11th day), administration 20.
The mark [11] stands for this setting: 100 mg/kg daily by stomach tube, 7 administrations.

Counter-ions that a name gives are not always drawn. Like-named read-outs stand apart in the source and are kept apart here.

Turning to `Oc1c(-c2ccc(F)cc2)cc(Sc2ccc(F)cc2)cc1C1CC1` [Process Example 12, 2-(p-Fluorophenyl)-4-(p-fluorophenylthio)-6-cyclopropylphenol], in data set [1], the Inhibition (as a rule, the relative decrease from the control value, in per cent) at 10^-5 mol/l came to 99% and the IC50 came out at 1500 nM.

In the case of `CC(C)c1cc(Sc2ccccc2)cc(-c2ccc(F)cc2)c1O` [Process Example 7, 2-(p-Fluorophenyl)-4-(phenylthio)-6-isopropylphenol], in data set [1], the “Inhibition at 10^-5 mol/l” value is recorded as 92% and the IC50 turned out to be 4000 nM.

Turning to `CC(C)c1cc(S)cc(-c2ccc(F)cc2)c1O` [Process Example 4, 2-(P-Fluorophenyl)-4-mercapto-6-isopropylphenol], in data set [1], the “Inhibition at 10^-5 mol/l” value was found to be 90% and the IC50 amounted to 4400 nM.

Regarding `CC[C@H](C)C(=O)O[C@H]1C[C@@H](C)C=C2C=C[C@H](C)[C@H](CC[C@@H]3C[C@@H](O)CC(=O)O3)[C@H]21` [Mevinolin], the “Serum total cholesterol, % change compared to control group” value (“Serum total cholesterol, % change” below) is “+14%” in the data set on serum total cholesterol (setting [2]); -1% in the data set on serum total cholesterol (setting [3]); “+2%” in the data set with serum total cholesterol (setting [4]); 0% in the data set with serum total cholesterol (setting [5]); -12% with serum total cholesterol (setting [6]); -30% with serum total cholesterol (setting [7]). Moreover, the “Serum total cholesterol, % change” value in the data set on serum total cholesterol (setting [8]) was -27%; with serum total cholesterol (setting [9]), -24%; with serum total cholesterol (setting [10]), -26%.

Consider `CCOC(=O)C(C)(C)Oc1ccc(Cl)cc1` [clofibrate, reference compound], for which, in the data set with serum lipoproteins (setting [11]), the “Body weight, % changes in the mean value relative to starting” value is reported as “+8%”; the “Food consumption, % changes in the mean value relative to control” value is “+1%”; the “Glycerol VLDL, % change compared to control” value is recorded as “+4%”; the “Liver weight, % changes in the mean value relative to control” value is on record as “+15%”. Also, in the data set with serum lipoproteins (setting [11]), the “Protein LDL, % change compared to control” value is recorded as -9%; the “Protein VLDL, % change compared to control” value is on record as -16%; the “Total cholesterol HDL, % change compared to control” value is recorded as -29%; the “Total cholesterol LDL, % change compared to control” value is -19%. In the data set with serum lipoproteins (setting [11]), the “Total cholesterol VLDL, % change compared to control” value is recorded as -40%. Further, the “Cholesterol HDL/LDL” value in the data set on serum lipoproteins (100 mg/kg daily, control standardization to 1.00) is 0.88.

Take `CC[C@H](C)C(=O)O[C@H]1C[C@@H](C)C=C2C=C[C@H](C)[C@H](CC[C@@H](O)C[C@@H](O)CC(=O)O)[C@H]21` [mevinolin sodium salt, reference compound]: the IC50 in the data set on HEP G2 cells (HepG2, sodium salts, test compounds corrected by deviation of mevinolin sodium from its mean value, read-out: IC50 (concentration necessary for a 50% inhibition)) worked out at 50 nM. Moreover, the IC70 with HEP G2 cells (HepG2, sodium salts, test compounds corrected by deviation of mevinolin sodium from its mean value, read-out: IC70 (concentration necessary for a 70% inhibition)) was found to be 0.15 µM. Moreover, the “IC70 (concentration necessary for a 70% inhibition)” value in the data set on HEP G2 cells (sodium salts, test compounds corrected by deviation of mevinolin sodium from its mean value) amounted to 150 nM.

Take `CC(C)Sc1cc(-c2ccc(F)cc2)c(O)c(C(C)C)c1` [Process Example 8, 2-(p-Fluorophenyl)-4-(isopropylthio)-6-isopropylphenol]: the “Inhibition at 10^-5 mol/l” value in data set [1] is given as 1%.

`CC(C)c1cc(-c2ccc(F)cc2)c(OC[C@@H](O)C[C@@H](O)CC(=O)[O-])c(C(C)C)c1.[Na+]` [Compound C, 3(R),5(S)-dihydroxy-6[-2-(4-fluorophenyl)-4,6-diisopropylphenoxy]hexanoicacid sodium salt]: the IC50 with HEP G2 cells (HepG2, read-out: IC50 (concentration necessary for a 50% inhibition)) came to 27 nM. For the same compound, the IC70 with HEP G2 cells (HepG2, read-out: IC70 (concentration necessary for a 70% inhibition)) is 0.07 µM. For the same compound, the “Relative potency in %” value in the data set on HEP G2 cells (mevinolin sodium = 100, from IC50) turned out to be 185%. Besides, the “Relative potency in % (value in parentheses)” value in the data set with HEP G2 cells (mevinolin sodium = 100, in parentheses, corresponds to IC70) stood at 214%. The “Serum total cholesterol, % change” value in the data set with serum total cholesterol (setting [2]) is -13%; in the data set with serum total cholesterol (setting [3]), -23%; in the data set on serum total cholesterol (setting [4]), -16%; in the data set with serum total cholesterol (setting [5]), “+18%”; with serum total cholesterol (setting [6]), “+7%”; in the data set on serum total cholesterol (setting [7]) it was -32%. The “Serum total cholesterol, % change” value in the data set with serum total cholesterol (setting [8]) is on record as -31%; in the data set on serum total cholesterol (setting [9]) it was -37%; in the data set on serum total cholesterol (setting [10]) it was -36%.

For the compound `CC(C)c1c(O)c(C(C)C)c(C(C)C)c(O)c1-c1ccc(F)cc1` [Process Example 22, 2-(p-Fluorophenyl)-3,5,6-triisopropyl-1,4-hydroquinone], in data set [1], the “Inhibition at 10^-5 mol/l” value turned out to be 99% and the IC50 turned out to be 1600 nM.

For `CC(=O)Oc1c(-c2ccc(F)cc2)c(C(C)C)c(O)c(C(C)C)c1C(C)C` [Process Example 23, 2,5,6-Triisopropyl-3-(p-fluorophenyl)-4-acetoxyphenol], in data set [1], the “Inhibition at 10^-5 mol/l” value is on record as 98% and the IC50 came out at 2800 nM.

Regarding `CC(C)c1cc(SC(C)(C)Sc2cc(-c3ccc(F)cc3)c(O)c(C(C)C)c2)cc(-c2ccc(F)cc2)c1O` [Process Example 5, 4,4-(Isopropylidenedithio)-bis-[(2-isopropyl-6-p-fluorophenyl)phenol]], in data set [1], the “Inhibition at 10^-5 mol/l” value worked out at 11%.
